How the values were obtained:
BT-474 cancer cells = assay: Inhibition of BT-474 cell proliferation (CellTiter-Glo); format: cell-based; conditions: Homo sapiens, BT-474 cells, 120 hours
In short: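 BT-474 cells in RPMI-1640 with 20% FBS, seeded 48 h before dosing with 11 three-fold dilutions (final 0.2 nM to 10 μM). Viability read by CellTiter-Glo luminescence 120 h after treatment, triplicate tests. GI50 derived from growth rate (%) versus control.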

HER2 enzyme = target: T1, HER2 enzyme (Homo sapiens, UniProt P04626); assay: Biochemical kinase assay for HER2 (Reaction Biology Corp.); conditions: ATP 10 μM, 3-fold dilution from 10 μM
T1 construct: purchased Reaction Biology Corp. (San Diego, USA); outsourced assay service
T1 sequence (P04626 23-1255): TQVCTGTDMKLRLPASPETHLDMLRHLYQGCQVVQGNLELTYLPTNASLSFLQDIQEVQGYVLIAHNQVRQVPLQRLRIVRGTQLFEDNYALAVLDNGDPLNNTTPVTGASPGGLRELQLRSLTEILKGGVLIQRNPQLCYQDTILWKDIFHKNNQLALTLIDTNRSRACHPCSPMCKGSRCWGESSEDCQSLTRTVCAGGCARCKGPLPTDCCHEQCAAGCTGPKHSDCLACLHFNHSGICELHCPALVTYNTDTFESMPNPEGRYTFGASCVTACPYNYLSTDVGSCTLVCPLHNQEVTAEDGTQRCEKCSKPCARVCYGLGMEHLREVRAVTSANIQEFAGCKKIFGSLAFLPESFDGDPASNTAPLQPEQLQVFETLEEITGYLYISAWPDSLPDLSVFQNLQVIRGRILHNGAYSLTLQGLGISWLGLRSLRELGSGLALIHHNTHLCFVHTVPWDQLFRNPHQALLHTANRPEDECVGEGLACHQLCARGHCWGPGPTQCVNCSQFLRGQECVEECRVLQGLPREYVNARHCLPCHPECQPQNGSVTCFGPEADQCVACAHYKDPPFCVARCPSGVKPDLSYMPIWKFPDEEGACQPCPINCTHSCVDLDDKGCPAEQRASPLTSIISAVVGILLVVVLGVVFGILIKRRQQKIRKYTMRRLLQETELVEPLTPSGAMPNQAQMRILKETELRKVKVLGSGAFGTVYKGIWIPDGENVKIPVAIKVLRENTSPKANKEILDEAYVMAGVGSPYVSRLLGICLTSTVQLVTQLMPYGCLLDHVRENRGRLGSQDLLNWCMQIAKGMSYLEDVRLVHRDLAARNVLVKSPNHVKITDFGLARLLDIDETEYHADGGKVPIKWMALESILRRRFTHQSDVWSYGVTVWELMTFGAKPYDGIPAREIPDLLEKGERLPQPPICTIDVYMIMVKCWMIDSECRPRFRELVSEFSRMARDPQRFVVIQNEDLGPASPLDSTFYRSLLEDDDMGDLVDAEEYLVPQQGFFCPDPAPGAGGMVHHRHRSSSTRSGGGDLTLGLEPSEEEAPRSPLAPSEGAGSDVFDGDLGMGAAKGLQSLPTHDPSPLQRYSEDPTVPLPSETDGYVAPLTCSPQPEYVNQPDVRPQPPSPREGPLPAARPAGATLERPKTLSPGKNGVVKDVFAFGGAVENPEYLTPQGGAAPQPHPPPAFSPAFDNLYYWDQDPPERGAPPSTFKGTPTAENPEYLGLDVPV
Method: A biochemical kinase assay for HER2 was conducted through Reaction Biology Corp. (San Diego, USA).

N-87 cancer cells = assay: Inhibition of N-87 cell proliferation (CellTiter-Glo); format: cell-based; conditions: N-87 cells, 72 hours
Method: N-87 cancer cells were cultured by using RPMI-1640 medium with 10% FBS. The N-87 cancer cells were seeded to a white clear bottom 96 well plate (Corning) at 5,000 cells per well 24 hours before the […] cancer cells were treated with Example Compounds. Example Compounds were diluted in dimethylsulfoxide (5-fold diluted, total 11 concentrations) and 0.5 μL each was injected so that the final concentration was […]. For the measurement of living cells, the cells were stored at room temperature for 10 minutes using the CellTiter-Glo cell viability reagent (Promega) after 72 hours after the treatment of Example Compounds, and then the luminescence intensity was measured using the reader (SynergyNeo, Biotek).
The result value was calculated as a cell growth rate (%) compared to a control group. Graphs were plotted and GI50 values were calculated using the GraphPad Prism version 8.0 program, and the results are shown in Table 18 below.

In the case of C=CC(=O)N1CCC(Nc2cc3c(Nc4cc(Cl)c(Oc5cccc(F)c5)cc4OC)ncnc3cc2OC)CC1 [Example 2, 1-(4-((4-((5-chloro-4-(3-fluorophenoxy)-2-methoxyphenyl)amino)-7-methoxyquinazolin-6-yl)amino)piperidin-1-yl)prop-2-en-1-one], the GI50 (BT-474 cancer cells) is reported as no more than 50 nM, the IC50 (HER2 enzyme) is reported as no more than 50 nM and the GI50 (N-87 cancer cells) is reported as no more than 50 nM.
COc1cc2ncnc(Nc3cc(Cl)c(Oc4ccccn4)cc3OC)c2cc1NC(=O)/C=C/[C@H]1CCCN1C [Example 33, (R,E)-N-(4-((5-chloro-2-methoxy-4-(pyridin-2-yloxy)phenyl)amino)-7-methoxyquinazolin-6-yl)-3-(1-methylpyrrolidin-2-yl)acrylamide] gave a GI50 (BT-474 cancer cells) of no more than 50 nM, an IC50 (HER2 enzyme) of no more than 50 nM and a GI50 (N-87 cancer cells) of no more than 50 nM.
COc1cc2ncnc(Nc3cc(C(F)(F)F)c(Oc4ccn5ncnc5c4)cc3OC)c2cc1NC(=O)/C(F)=C/[C@H]1CCCN1C [Example 54, (R,Z)—N-(4-((4-([1,2,4]triazolo[1,5-a]pyridin-7-yloxy)-2-methoxy-5-(trifluoromethyl)phenyl)amino)-7-methoxyquinazolin-6-yl)-2-fluoro-3-(1-methylpyrrolidin-2-yl)acrylamide] showed a GI50 (BT-474 cancer cells) of no more than 50 nM and an IC50 (HER2 enzyme) of no more than 50 nM.
In the case of COc1cc2ncnc(Nc3ccc(Oc4ccn5ncnc5c4)cc3OC)c2cc1NC(=O)/C(F)=C\[C@H]1CCCN1C [Example 46, (R,E)-N-(4-((4-([1,2,4]triazolo[1,5-a]pyridin-7-yloxy)-2-methoxyphenyl)amino)-7-methoxyquinazolin-6-yl)-2-fluoro-3-(1-methylpyrrolidin-2-yl)acrylamide], the GI50 (BT-474 cancer cells) is reported as no more than 50 nM and the GI50 (N-87 cancer cells) is reported as no more than 50 nM.
COc1cc2ncnc(Nc3cc(C)c(Oc4ccn5ncnc5c4)cc3OC)c2cc1NC(=O)/C(F)=C\[C@H]1CCCN1 [Example 134, (R,E)-N-(4-((4-([1,2,4]triazolo[1,5-a]pyridin-7-yloxy)-2-methoxy-5-methylphenyl)amino)-7-methoxyquinazolin-6-yl)-2-fluoro-3-(pyrrolidin-2-yl)acrylamide] showed a GI50 (BT-474 cancer cells) of no more than 50 nM and a GI50 (N-87 cancer cells) of no more than 50 nM.
With COc1cc(Oc2ccn3ncnc3c2)c(C)cc1Nc1ncnc2ccc(NC(=O)/C(F)=C\[C@H]3CCCN3C)cc12 [Example 91, (R,E)-N-(4-((4-([1,2,4]triazolo[1,5-a]pyridin-7-yloxy)-2-methoxy-5-methylphenyl)amino)quinazolin-6-yl)-2-fluoro-3-(1-methylpyrrolidin-2-yl)acrylamide] the GI50 (BT-474 cancer cells) was no more than 50 nM and the GI50 (N-87 cancer cells) was no more than 50 nM.
Work on COc1cc2ncnc(Nc3cc(C)c(Oc4ccn5ncnc5c4)cc3OC)c2cc1NC(=O)/C(Cl)=C\[C@H]1CCCN1C [Example 136, (R,E)-N-(4-((4-([1,2,4]triazolo[1,5-a]pyridin-7-yloxy)-2-methoxy-5-methylphenyl)amino)-7-methoxyquinazolin-6-yl)-2-chloro-3-(1-methylpyrrolidin-2-yl)acrylamide] yielded a GI50 (BT-474 cancer cells) of no more than 50 nM and a GI50 (N-87 cancer cells) of no more than 50 nM.
Molecule C=CC(=O)N1CCC(Oc2cc3c(Nc4cc(Cl)c(Oc5cccc(F)c5)cc4OC)ncnc3cc2OC)C(F)C1 (centres unmarked) [Example 6, 1-(4-((4-((5-chloro-4-(3-fluorophenoxy)-2-methoxyphenyl)amino)-7-methoxyquinazolin-6-yl)oxy)-3-fluoropiperidin-1-yl)prop-2-en-1-one] has a GI50 (BT-474 cancer cells) of no more than 50 nM and a GI50 (N-87 cancer cells) of no more than 50 nM.
In the case of COc1cc2ncnc(Nc3cc(C)c(Oc4ccccc4)cc3OC)c2cc1NC(=O)/C(F)=C\[C@H]1CCCN1C [Example 74, (R,E)-2-fluoro-N-(7-methoxy-4-((2-methoxy-5-methyl-4-phenoxyphenyl)amino)quinazolin-6-yl)-3-(1-methylpyrrolidin-2-yl)acrylamide], the GI50 (BT-474 cancer cells) is reported as no more than 50 nM and the GI50 (N-87 cancer cells) is reported as no more than 50 nM.
In the case of COc1cc2ncnc(Nc3cc(C)c(Oc4ccc5ncn(C)c5c4)cc3OC)c2cc1NC(=O)/C(F)=C\[C@H]1CCCN1C [Example 55, (R,E)-2-fluoro-N-(7-methoxy-4-((2-methoxy-5-methyl-4-((1-methyl-1H-benzo[d]imidazol-6-yl)oxy)phenyl)amino)quinazolin-6-yl)-3-(1-methylpyrrolidin-2-yl)acrylamide], the GI50 (BT-474 cancer cells) is reported as no more than 50 nM and the GI50 (N-87 cancer cells) is reported as no more than 50 nM.
For COc1cc(Oc2ccn3ncnc3c2)c(C)cc1Nc1ncnc2ccc(NC(=O)/C(F)=C/[C@H]3CCCN3C)cc12 [Example 92, (R,Z)—N-(4-((4-([1,2,4]triazolo[1,5-a]pyridin-7-yloxy)-2-methoxy-5-methylphenyl)amino)quinazolin-6-yl)-2-fluoro-3-(1-methylpyrrolidin-2-yl)acrylamide], the GI50 (BT-474 cancer cells) was no more than 50 nM and the IC50 (HER2 enzyme) was no more than 50 nM.
With COc1cc2ncnc(Nc3cc(Cl)c(Oc4cccc(F)c4)cc3OC)c2cc1NC(=O)/C=C/[C@H]1CCCN1 [Example 31, (R,E)-N-(4-((5-chloro-4-(3-fluorophenoxy)-2-methoxyphenyl)amino)-7-methoxyquinazolin-6-yl)-3-(pyrrolidin-2-yl)acrylamide] the GI50 (BT-474 cancer cells) was no more than 50 nM and the GI50 (N-87 cancer cells) was no more than 50 nM.
Molecule C=CC(=O)N1CCC(F)(F)C(Oc2cc(OC)cc3ncnc(Nc4cc(C)c(Oc5ccn6ncnc6c5)cc4OC)c23)C1 (centres unmarked) [Example 16, 1-(3-((4-((4-([1,2,4]triazolo[1,5-a]pyridin-7-yloxy)-2-methoxy-5-methylphenyl)amino)-7-methoxyquinazolin-5-yl)oxy)-4,4-difluoropiperidin-1-yl)prop-2-en-1-one] has a GI50 (BT-474 cancer cells) of no more than 50 nM and a GI50 (N-87 cancer cells) of no more than 50 nM.
Work on CCN1CCC[C@@H]1/C=C(/F)C(=O)Nc1cc2c(Nc3cc(C)c(Oc4ccn5ncnc5c4)cc3OC)ncnc2cc1OC [Example 52, (R,E)-N-(4-((4-([1,2,4]triazolo[1,5-a]pyridin-7-yloxy)-2-methoxy-5-methylphenyl)amino)-7-methoxyquinazolin-6-yl)-3-(1-ethylpyrrolidin-2-yl)-2-fluoroacrylamide] yielded a GI50 (BT-474 cancer cells) of no more than 50 nM and a GI50 (N-87 cancer cells) of no more than 50 nM.
With COCCOc1cc2ncnc(Nc3cc(C)c(Oc4ccn5ncnc5c4)cc3OC)c2cc1NC(=O)/C(F)=C/[C@H]1CCCN1C [Example 95, (R,Z)—N-(4-((4-([1,2,4]triazolo[1,5-a]pyridin-7-yloxy)-2-methoxy-5-methylphenyl)amino)-7-(2-methoxyethoxy)quinazolin-6-yl)-2-fluoro-3-(1-methylpyrrolidin-2-yl)acrylamide] the GI50 (BT-474 cancer cells) was no more than 50 nM and the GI50 (N-87 cancer cells) was no more than 50 nM.
C=CC(=O)N1CCC(Oc2cc3c(Nc4ccc(Oc5ccn(-c6cnc(C)c(F)c6)n5)cc4OC)ncnc3cc2OC)CC1 [Example 9, 1-(4-((4-((4-((1-(5-fluoro-6-methylpyridin-3-yl)-1H-pyrazol-3-yl)oxy)-2-methoxyphenyl)amino)-7-methoxyquinazolin-6-yl)oxy)piperidin-1-yl)prop-2-en-1-one] showed a GI50 (BT-474 cancer cells) of 50 to 100 nM and a GI50 (N-87 cancer cells) of no more than 50 nM.
With C=CC(=O)N1CCC(Nc2cc3c(Nc4cc(C)c(Oc5ccn6ncnc6c5)cc4OC)ncnc3cc2OC)CC1 [Example 1, 1-(4-((4-((4-([1,2,4]triazolo[1,5-a]pyridin-7-yloxy)-2-methoxy-5-methylphenyl)amino)-7-methoxyquinazolin-6-yl)amino)piperidin-1-yl)prop-2-en-1-one] the GI50 (BT-474 cancer cells) was no more than 50 nM and the GI50 (N-87 cancer cells) was no more than 50 nM.
Work on COc1cc2ncnc(Nc3cc(Cl)c(Oc4ccn5ncnc5c4)cc3OC)c2cc1NC(=O)/C=C/[C@H]1CCCN1C [Example 32, (R,E)-N-(4-((4-([1,2,4]triazolo[1,5-a]pyridin-7-yloxy)-5-chloro-2-methoxyphenyl)amino)-7-methoxyquinazolin-6-yl)-3-(1-methylpyrrolidin-2-yl)acrylamide] yielded a GI50 (BT-474 cancer cells) of no more than 50 nM and a GI50 (N-87 cancer cells) of no more than 50 nM.

From patent US20240383923A1, “HETEROARYL DERIVATIVE AND USE THEREOF” (VORONOI INC., priority 2022, published 2024)
